Laboratory results from PubChem BioAssay (NCI).
Where “and” joins values, the source holds several entries; their conditions need not be identical. Equal values may be shown once.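 Exposure lasted 48 hours, with cells grown in 96-well plates and compounds tested at five concentrations. GI50 = concentration required for 50% inhibition of growth. TGI denotes the concentration required for complete inhibition of growth.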

What follows are molecules tested on MDA-MB-468 breast (assay: inhibition of tumour cell growth, NCI panel, 48 h).
Cn1c(=O)c(Oc2ccc(F)cc2F)cc2cnc(N[C@@H]3CCOC3)nc21 gave a GI50 of over 25000 nM and a TGI of over 25000 nM.
Molecule CS(=O)(=O)c1cccc(Nc2ncc3cc(-c4ccccc4Cl)ccc3n2)c1 has a GI50 of 2070 nM and a TGI of 19600 nM.
CCN(CC)CCN1c2nc3ccccc3cc2Sc2cc3ccccc3nc21 was tested, and the GI50 was 1790 nM and the TGI was 5330 nM.
In the case of CCN1C(=O)N(CC)C2C1NN=c1s/c(=C3\C(=O)N(C4CCCC4)c4ccccc43)c(=O)n12 (configuration not stated), the GI50 is reported as 325 nM and the TGI is reported as 2450 nM.
In the case of CC[C@H](C)[C@H](NC(=O)[C@H]1CCCCN1C)C(=O)N(C)[C@H](C[C@@H](OC(C)=O)c1cccc(C(=O)N[C@@H](Cc2ccccc2)C[C@H](C)C(=O)O)n1)C(C)C, the GI50 is reported as 0.353 nM and 2.5 nM.
COc1cc2ncnc(Nc3ccc(Oc4ccnc(C)c4)c(C)c3)c2cc1NC(=O)CC1CCSS1 (configuration not stated) was tested, and the GI50 was 784 nM and the TGI was 1730 nM.
Work on COc1ccc(-c2cc(-c3ccc(Cl)cc3)nc(NCCCCNc3ccnc4cc(Cl)ccc34)n2)cc1 yielded a GI50 of 1720 nM and a TGI of 4300 nM.
Work on Cc1ccc(Cl)c(NS(=O)(=O)c2ccc(-c3cnc(C4CC4)o3)cc2)c1 yielded a GI50 of 45.2 nM and a TGI of 7110 nM.
For N=C(N)c1ccc(-c2ccc(-c3ccc4ccccc4c3)s2)s1, the GI50 was 2380 nM and the TGI was 5200 nM.
For Nc1ncc(-c2ccc3ncnc(N4CCc5ccc(Cl)cc54)c3c2)cc1C(F)(F)F, the GI50 was 299 nM and the TGI was 2680 nM.
Fc1ccc(-c2nn3ccccc3c2-c2ccncc2)cc1 was tested, and the GI50 was 11000 nM and the TGI was over 25000 nM.
Cn1cc(C2=C(c3cn(CCCN)c4ccccc34)C(=O)NC2=O)c2ccccc21 gave a GI50 of 3700 nM and a TGI of 7940 nM.
With O=C(NCCOCCOCCOCCNC(=O)c1cc2c(o1)C(=O)c1ccccc1C2=O)NC12CC3CC(CC(C3)C1)C2 the GI50 was 1080 nM and the TGI was 4370 nM.
Molecule C#C[C@@]1(O)[C@@H](CO)O[C@@H](n2cc(C(F)(F)F)c3c(N)ncnc32)[C@@H]1O has a GI50 of 280 nM and a TGI of 1900 nM.
O=C(/C=C/c1ccccn1)c1ccc(OCc2nnc(-c3ccc(Cl)cc3)o2)cc1 was tested, and the GI50 was 1710 nM and the TGI was 3560 nM.
COc1ccc(S(=O)(=O)Nc2c(/C=C\c3cc(OC)c(OC)c(OC)c3)ccc(OC)c2O)cc1 was tested, and the GI50 was 43.9 nM and the TGI was 17600 nM.
With Cc1nc2sc3c(N)ncnc3c2c(C)c1C the GI50 was over 25000 nM and the TGI was over 25000 nM.
In the case of Oc1[nH]c2ccccc2c1/C=c1/ccc2c(c1)N=C(c1ccc(C(F)(F)F)cc1)N=2, the GI50 is reported as 2390 nM and the TGI is reported as 14700 nM.
Molecule CCCCCCCCCCNCCSS(=O)(=O)O has a GI50 of 2450 nM and a TGI of 6280 nM.
Work on CN(C)Cc1ccc(NC(=O)c2cncc(C#Cc3cnc(N)c4ncccc34)c2)cc1F yielded a GI50 of 7720 nM and a TGI of 25700 nM.
COc1ccc(C2C(C#N)=C(N)Oc3c2sc2c(Br)cccc32)cc1 (configuration not stated) showed a GI50 of 1860 nM and a TGI of 5550 nM.
Molecule Clc1ccc2c(c1)N(C1CCCN(Cc3ccccc3)C1)c1ccccc1S2 (configuration not stated) has a GI50 of 2690 nM and a TGI of 9510 nM.
CNC(=O)c1c(F)cccc1Nc1nc(Nc2cc3c(cc2OC)CCN3C(=O)CN(C)C)nc2[nH]ccc12 gave a GI50 of 2340 nM and a TGI of 8850 nM.
For COc1cc(-c2nc3ccccc3o2)cc(CN2CCCCC2)c1O, the GI50 was 3240 nM and the TGI was 22800 nM.
Work on C=C1C(=O)O[C@H]2[C@H]1CC/C(COC(=O)/C=C\C(=O)NCc1ccc(Cn3c(=O)sn(CCI)c3=O)cc1)=C\CC[C@@]1(C)O[C@@H]21 yielded a GI50 of 2390 nM and a TGI of 5850 nM.
With CCOc1ccc(C(C[N+](=O)[O-])Sc2ccccc2N)cc1 (configuration not stated) the GI50 was 2110 nM and the TGI was 4790 nM.
Molecule CCC(=O)N1C/C(=C/c2ccc(Br)cc2)C(=O)/C(=C/c2ccc(Br)cc2)C1 has a GI50 of 371 nM and a TGI of 1230 nM.
Molecule CCN(CC)c1ccc(-c2cc(-c3cc(OC)c(OC)c(OC)c3)nc(N3CCC(O)CC3)c2C#N)cc1 has a GI50 of 987 nM and a TGI of 3210 nM.
For C=CCNC1=C2C[C@@H](C)C[C@H](OC)[C@H](O)[C@@H](C)/C=C(\C)[C@H](OC(N)=O)[C@@H](OC)/C=C\C=C(/C)C(=O)NC(=CC1=O)C2=O, the GI50 was 209 nM and the TGI was 1830 nM.
Work on N#Cc1nc(C#N)c(Sc2ccccc2)c(Sc2ccccc2)c1Sc1ccccc1 yielded a GI50 of 1910 nM and a TGI of 5800 nM.
With COc1ccc(C(=O)c2cc3c(N)c(C(=O)Nc4cccc(Br)c4C)sc3nc2C)cc1 the GI50 was 40.4 nM.
Work on O=C1Nc2ccccc2/C1=C\c1nc(-c2ccccc2F)n2ccccc12 yielded a GI50 of 1540 nM and a TGI of 5510 nM.
For c1ccc(-c2n(Cc3ccc4ccccc4c3)c3ccccc3[n+]2Cc2ccc3ccccc3c2)cc1, the GI50 was 134 nM and the TGI was 703 nM.
COc1ccc2c(O)c(/C=C3\N=Nc4ncccc43)oc2c1C[C@@H]1CCNC[C@H]1F showed a GI50 of 308 nM and a TGI of 1430 nM.
Clc1cccc(CNc2c3ccccc3nc3ccccc23)c1 was tested, and the GI50 was 1280 nM and the TGI was 3130 nM.
For Nc1cc(F)ccc1NC(=O)c1ccc(NC(=O)C/C=C/c2cccnc2)cn1, the GI50 was 911 nM and the TGI was 2500 nM.
CCCCOc1ccc(/C=N/Nc2cc(C)nc3ccc(Br)cc23)cc1 was tested, and the GI50 was 1670 nM and the TGI was 3220 nM.
O=C(Nc1cc(F)c(F)cc1C(=O)O)c1ccc(-n2ccnc2)nn1 showed a GI50 of over 100000 nM and a TGI of over 100000 nM.
In the case of O=C1Cc2cc(CCn3cncn3)c(Cl)cc2N1, the GI50 is reported as 2180 nM and the TGI is reported as 9540 nM.
With c1ccc(Oc2ccc(Nc3ncc(-c4ccccc4)o3)cc2)cc1 the GI50 was over 25000 nM and the TGI was over 25000 nM.
COc1ccccc1[As]=[As]c1ccccc1OC (configuration not stated) was tested, and the GI50 was 19.9 nM and the TGI was 47.4 nM.
With NCCCNc1nc2ccccc2c2c(=O)c3cccc(Cl)c3sc12 the GI50 was 837 nM and the TGI was 2250 nM.
